Measurements taken from patent publication US8143244B2, “Cyclopropyl fused indolobenzazepine HCV NS5B inhibitors” (Bristol-Myers Squibb Company, priority 2009, dated 2012).
Like-named read-outs stand apart in the source and are kept apart here.

Experiments:
HCV replicon genotype 1a = assay: HCV Replicon Luciferase Reporter Assay (LE Assay), genotype 1a replicon; assay type: cell-based, HCV genotype 1a; conditions: Hepatitis C virus, read-out: LE NeoLuc EC50
Protocol: (§1) The HCV replicon luciferase assay was developed to monitor the inhibitory effects of compounds described in the disclosure on HCV viral replication. Utilization of a replicon luciferase reporter assay was first described by Krieger et al (Krieger N, Lohmann V, and Bartenschlager R, J. Virol. 75(10):4614-4624 (2001)). HUH-7 cells, constitutively expressing the HCV replicon, were grown in Dulbeccors Modified Eagle Media (DMEM) (Gibco-BRL) containing 10% Fetal calf serum (FCS) (Sigma) and 1 mg/ml G418 (Gibco-BRL). Compounds were serially diluted 3 folds in DMSO for a twenty-point titration and subsequently transferred to sterile 384-well tissue-culture treated plates (Coming cat #3571). The plates were then seeded with 50 μl of cells at a density of 3.0×10^3 cells/well in DMEM containing 4% FCS (final DMSO concentration at 0.5%). After 3 days incubation at 37° C., cells were analyzed for Renilla Luciferase activity using the EnduRen as substrate (Promega cat #E6485). The EnduRen substrate was diluted in DMEM and then added to the plates to a final concentration of 7.5 μM. The plates were incubated for 2 hrs at 37° C. and then read immediately for 30 seconds with Viewlux Imager (PerkinElmer) using a luminescence program. To assess cytotoxicity of compounds, CC50 values were generated by multiplexing the EnduRen-containing plates with Cell Titer-Blue (Promega, cat #G8082). 3 μl of Cell-Titer Blue was added to each well and incubated for 8 hrs at 37° C. The fluorescence signal from each well was read, with an excitation wavelength at 525/10 nm and an emission wavelength of 598/10 nm, using the Viewlux Imager.

HCV NS5B = target: T1, HCV NS5B (Hepatitis C virus genotype 1b, UniProt Q9WMX2); assay: HCV NS5B RdRp enzyme assay; assay type: biochemical; conditions: HCV NS5B RdRp genotype 1b
T1 construct: The protein was expressed with an 18 amino acid C-terminal truncation to enhance the solubility; made in house; host or cells: E. coli BL21(DE3)
T1 sequence (Q9WMX2 2420-2992): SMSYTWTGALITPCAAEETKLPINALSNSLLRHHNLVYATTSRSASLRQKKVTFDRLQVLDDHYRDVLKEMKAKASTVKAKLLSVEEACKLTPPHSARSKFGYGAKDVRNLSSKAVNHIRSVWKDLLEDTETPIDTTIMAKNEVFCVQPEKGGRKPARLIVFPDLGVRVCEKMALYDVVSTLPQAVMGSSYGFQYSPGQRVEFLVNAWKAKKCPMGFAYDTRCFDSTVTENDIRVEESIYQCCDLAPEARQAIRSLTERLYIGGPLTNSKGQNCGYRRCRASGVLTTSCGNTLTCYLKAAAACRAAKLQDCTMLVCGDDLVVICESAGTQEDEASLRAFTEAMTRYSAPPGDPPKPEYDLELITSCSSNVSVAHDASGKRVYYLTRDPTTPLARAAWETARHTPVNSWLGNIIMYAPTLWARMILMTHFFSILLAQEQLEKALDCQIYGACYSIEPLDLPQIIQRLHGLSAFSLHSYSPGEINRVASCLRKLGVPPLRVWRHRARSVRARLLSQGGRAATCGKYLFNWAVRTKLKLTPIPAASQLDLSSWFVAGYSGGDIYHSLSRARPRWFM
Protocol: HCV NS5B RdRp cloning, expression, and purification. The cDNA encoding the NS5B protein of HCV, genotype 1b, was cloned into the pET21a expression vector. The protein was expressed with an 18 amino acid C-terminal truncation to enhance the solubility. The E. coli competent cell line BL21(DE3) was used for expression of the protein. Cultures were grown at 37° C. for ˜4 hours until the cultures reached an optical density of 2.0 at 600 nm. The cultures were cooled to 20° C. and induced with 1 mM IPTG. Fresh ampicillin was added to a final concentration of 50 μg/ml and the cells were grown overnight at 20° C.
Cell pellets (3L) were lysed for purification to yield 15-24 mgs of purified NS5B. The lysis buffer consisted of 20 mM Tris-HCl, pH 7.4, 500 mM NaCl, 0.5% triton X-100, 1 mM DTT, 1 mM EDTA, 20% glycerol, 0.5 mg/ml lysozyme, 10 mM MgCl2, 15 ug/ml deoxyribonuclease I, and Complete TM protease inhibitor tablets (Roche). After addition of the lysis buffer, frozen cell pellets were resuspended using a tissue homogenizer. To reduce the viscosity of the sample, aliquots of the lysate were sonicated on ice using a microtip attached to a Branson sonicator. The sonicated lysate was centrifuged at 100,000×g for 1 hr at 4° C. and filtered through a 0.2 μm filter unit (Corning).
The protein was purified using three sequential chromatography steps: Heparin sepharose CL-6B, polyU sepharose 4B, and Hitrap SP sepharose (Pharmacia). The chromatography buffers were identical to the lysis buffer but contained no lysozyme, deoxyribonuclease I, MgCl2 or protease inhibitor and the NaCl concentration of the buffer was adjusted according to the requirements for charging the protein onto the column. Each column was eluted with a NaCl gradient which varied in length from 5-50 column volumes depending on the column type. After the final chromatography step, the resulting purity of the enzyme is >90% based on SDS-PAGE analysis. The enzyme was aliquoted and stored at −80° C.
Standard HCV NS5B RdRp enzyme assay. HCV RdRp genotype 1b assays were run in a final volume of 60 μl in 96 well plates (Costar 3912). The assay buffer is composed of 20 mM Hepes, pH 7.5, 2.5 mM KCl, 2.5 mM MgCl2, 1 mM DTT, 1.6 U RNAse inhibitor (Promega N2515), 0.1 mg/ml BSA (Promega R3961), and 2% glycerol. All compounds were serially diluted (3-fold) in DMSO and diluted further in water such that the final concentration of DMSO in the assay was 2%. HCV RdRp genotype 1b enzyme was used at a final concentration of 28 nM. A polyA template was used at 6 nM, and a biotinylated oligo-dT12 primer was used at 180 nM final concentration. Template was obtained commercially (Amersham 27-4110). Biotinylated primer was prepared by Sigma Genosys. 3H-UTP was used at 0.6 μCi (0.29 μM total UTP). Reactions were initiated by the addition of enzyme, incubated at 30° C. for 60 min, and stopped by adding 25 μl of 50 mM EDTA containing SPA beads (4 μg/μl, Amersham RPNQ 0007). Plates were read on a Packard Top Count NXT after >1 hr incubation at room temperature.
Modified HCV NS5B RdRp enzyme assay. A modified enzyme assay was performed essentially as described for the standard enzyme assay except for the following: The biotinylated oligo dT12 primer was precaptured on streptavidin-coated SPA beads by mixing primer and beads in assay buffer and incubating at room temperature for one hour. Unbound primer was removed after centrifugation. The primer-bound beads were resuspended in 20 mM Hepes buffer, pH 7.5 and used in the assay at final concentrations of 20 nM primer and 0.67 μg/μl beads. Order of addition in the assay: enzyme (14 nM) was added to diluted compound followed by the addition of a mixture of template (0.2 nM), 3H-UTP (0.6 μCi, 0.29 μM), and primer-bound beads, to initiate the reaction; concentrations given are final. Reactions were allowed to proceed for 4 hours at 30° C.
IC50 values for compounds were determined using seven different [I]. […]

HCV replicon = assay: HCV Replicon Luciferase Reporter Assay (LE Assay); assay type: cell-based, HCV genotype 1b; conditions: Hepatitis C virus
Protocol: as §1

[1] = genotype 1b, Huh-7, read-out: LE NeoLuc EC50, Table 1, HUH-7 cells, genotype 1b replicon
[2] = Huh-7, Table 2, HUH-7 cells, read-out: LE NeoLuc EC50

Row | SMILES | EC50 (HCV replicon genotype 1a) [nM] | IC50 (HCV NS5B; Table 1) [nM] | EC50 (HCV replicon; [1]) [nM] | EC50 (HCV replicon; [2]) [nM] | IC50 (HCV NS5B; Table 2) [nM]
1 | COc1ccc2c(c1)[C@@H]1C[C@]1(C(=O)N1CC34CCC3(CN(C(=O)N3CCCC3)C4)C1)Cn1c-2c(C2CCCCC2)c2ccc(C(=O)NS(=O)(=O)N(C)C)cc21 (some centres unmarked) | 1.9 to 500 | 1.9 to 500 |  |  | 
2 | COc1ccc2c(c1)[C@@H]1C[C@]1(C(=O)N1CC34CCC3(CN(C(=O)N3CCOCC3)C4)C1)Cn1c-2c(C2CCCCC2)c2ccc(C(=O)NS(=O)(=O)C(C)C)cc21 (some centres unmarked) | 1.9 to 500 | 1.9 to 500 |  |  | 
3 | COc1ccc2c(c1)[C@@H]1C[C@]1(C(=O)N1CC34CCC3(C1)CN(S(=O)(=O)C(C)C)C4)Cn1c-2c(C2CCCCC2)c2ccc(C(=O)NS(=O)(=O)C(C)C)cc21 (some centres unmarked) |  | 1.9 to 500 | 1.9 to 500 |  | 
4 | COc1ccc2c(c1)[C@@H]1C[C@]1(C(=O)N1CC34COCC3(CN(CC(F)(F)F)C4)C1)Cn1c-2c(C2CCCCC2)c2ccc(C(=O)NS(=O)(=O)N(C)C)cc21 (some centres unmarked) | 1.9 to 500 | 1.9 to 500 |  |  | 
5 | COc1ccc2c(c1)[C@@H]1C[C@]1(C(=O)N1CC34CCC3(CN(CC(F)(F)F)C4)C1)Cn1c-2c(C2CCCCC2)c2ccc(C(=O)NS(=O)(=O)N(C)C)cc21 (some centres unmarked) |  | 1.9 to 500 | 1.9 to 500 |  | 
6 | COc1ccc2c(c1)[C@@H]1C[C@]1(C(=O)N1CC34CCC3(CN(C)C4)C1)Cn1c-2c(C2CCCCC2)c2ccc(C(=O)NS(=O)(=O)C(C)C)cc21 (some centres unmarked) [drawing 108] |  |  |  | 6.96 | 3.5
7 | CCOCCN1CC23CCC2(C1)CN(C(=O)[C@]12C[C@H]1c1cc(OC)ccc1-c1c(C4CCCCC4)c4ccc(C(=O)NS(=O)(=O)C(C)C)cc4n1C2)C3 (some centres unmarked) | 1.9 to 500 |  |  |  | 
8 | COC(=O)N1CC23CCC2(C1)CN(C(=O)[C@]12C[C@H]1c1cc(OC)ccc1-c1c(C4CCCCC4)c4ccc(C(=O)NS(=O)(=O)C(C)C)cc4n1C2)C3 (some centres unmarked) |  | 1.9 to 500 | 1.9 to 500 |  | 
9 | CNC(=O)N1CC23CCC2(C1)CN(C(=O)[C@]12C[C@H]1c1cc(OC)ccc1-c1c(C4CCCCC4)c4ccc(C(=O)NS(=O)(=O)C(C)C)cc4n1C2)C3 (some centres unmarked) [drawing 111] |  |  |  | 60 | < 1.7
10 | CNC(=O)N1CC23CCC2(C1)CN(C(=O)[C@]12C[C@H]1c1cc(OC)ccc1-c1c(C4CCCCC4)c4ccc(C(=O)NS(=O)(=O)C(C)C)cc4n1C2)C3 (some centres unmarked) [drawing 99] |  | < 1.7 | 1.9 to 500 |  | 
11 | COc1ccc2c(c1)[C@@H]1C[C@]1(C(=O)N1CC34CCC3(CN(C(=O)N(C(C)C)C(C)C)C4)C1)Cn1c-2c(C2CCCCC2)c2ccc(C(=O)NS(=O)(=O)N(C)C)cc21 (some centres unmarked) | 1.9 to 500 | 1.9 to 500 |  |  | 
12 | COc1ccc2c(c1)[C@@H]1C[C@]1(C(=O)N1CC34CCC3(C1)CN(S(=O)(=O)C(C)C)C4)Cn1c-2c(C2CCCCC2)c2ccc(C(=O)NS(=O)(=O)N(C)C)cc21 (some centres unmarked) |  | 1.9 to 500 | 1.9 to 500 |  | 
13 | COc1ccc2c(c1)[C@@H]1C[C@]1(C(=O)N1CC34CCCC3(CN(C)C4)C1)Cn1c-2c(C2CCCCC2)c2ccc(C(=O)NS(=O)(=O)C(C)C)cc21 (some centres unmarked) |  | 1.9 to 500 | 1.9 to 500 |  | 
14 | COc1ccc2c(c1)[C@@H]1C[C@]1(C(=O)N1CC34COCC3(C1)CN(S(=O)(=O)C(C)C)C4)Cn1c-2c(C2CCCCC2)c2ccc(C(=O)NS(=O)(=O)C(C)C)cc21 (some centres unmarked) | 1.9 to 500 | 1.9 to 500 |  |  | 
15 | COc1ccc2c(c1)[C@@H]1C[C@]1(C(=O)N1CC34CCC3(C1)N(C(C)=O)C4)Cn1c-2c(C2CCCCC2)c2ccc(C(=O)NS(=O)(=O)C(C)C)cc21 (some centres unmarked) |  | 1.9 to 500 | 1.9 to 500 |  | 
16 | COc1ccc2c(c1)[C@@H]1C[C@]1(C(=O)N1CC34CCC3(CN(C)C4)C1)Cn1c-2c(C2CCCCC2)c2ccc(C(=O)NS(=O)(=O)C(C)C)cc21 (some centres unmarked) [drawing 71] |  | 1.9 to 500 | 1.9 to 500 |  | 
17 | COc1ccc2c(c1)[C@@H]1C[C@]1(C(=O)N1CC34CCC3(CN(C(=O)N3CCOCC3)C4)C1)Cn1c-2c(C2CCCCC2)c2ccc(C(=O)NS(=O)(=O)N(C)C)cc21 (some centres unmarked) | 1.9 to 500 | 1.9 to 500 |  |  | 
18 | COc1ccc2c(c1)[C@@H]1C[C@]1(C(=O)N1CC34CCC3(CN(C(=O)N(C)C)C4)C1)Cn1c-2c(C2CCCCC2)c2ccc(C(=O)NS(=O)(=O)C(C)C)cc21 (some centres unmarked) | 1.9 to 500 | 1.9 to 500 |  |  | 
19 | COc1ccc2c(c1)C=C(C(=O)N1CC34COCC3(C1)N(C(C)=O)C4)Cn1c-2c(C2CCCCC2)c2ccc(C(=O)NS(=O)(=O)C(C)C)cc21 (centres unmarked) |  | 1.9 to 500 | 1.9 to 500 |  | 
20 | COc1ccc2c(c1)[C@@H]1C[C@]1(C(=O)N1CC34CCC3(C1)C[N+]([O-])(CC(F)(F)F)C4)Cn1c-2c(C2CCCCC2)c2ccc(C(=O)NS(=O)(=O)N(C)C)cc21 (some centres unmarked) | 1.9 to 500 | < 1.7 |  |  | 
21 | COc1ccc2c(c1)[C@@H]1C[C@]1(C(=O)N1CC34CCC3(CN(CC(F)(F)F)C4)C1)Cn1c-2c(C2CCCCC2)c2ccc(C(=O)NS(=O)(=O)C(C)C)cc21 (some centres unmarked) | 1.9 to 500 | 1.9 to 500 |  |  | 
22 | COc1ccc2c(c1)[C@@H]1C[C@]1(C(=O)N1CC34CCC3(CN(C(=O)N(C(C)C)C(C)C)C4)C1)Cn1c-2c(C2CCCCC2)c2ccc(C(=O)NS(=O)(=O)C(C)C)cc21 (some centres unmarked) | 1.9 to 500 | 1.9 to 500 |  |  | 
23 | COc1ccc2c(c1)[C@@H]1C[C@]1(C(=O)N1CC34COCC3(C1)CN(S(=O)(=O)C(C)C)C4)Cn1c-2c(C2CCCCC2)c2ccc(C(=O)NS(=O)(=O)N(C)C)cc21 (some centres unmarked) | 1.9 to 500 | < 1.7 |  |  | 
24 | COc1ccc2c(c1)[C@@H]1C[C@]1(C(=O)N1CC34COCC3(CN(CC(F)(F)F)C4)C1)Cn1c-2c(C2CCCCC2)c2ccc(C(=O)NS(=O)(=O)C(C)C)cc21 (some centres unmarked) | 1.9 to 500 | 1.9 to 500 |  |  | 
25 | COc1ccc2c(c1)[C@@H]1C[C@]1(C(=O)N1CC34CCC3(CN(C(=O)N3CCCC3)C4)C1)Cn1c-2c(C2CCCCC2)c2ccc(C(=O)NS(=O)(=O)C(C)C)cc21 (some centres unmarked) | 1.9 to 500 | 1.9 to 500 |  |  | 
26 | COc1ccc2c(c1)[C@@H]1C[C@]1(C(=O)N1CC34CCC3(C1)CN(C1CC1)C4)Cn1c-2c(C2CCCCC2)c2ccc(C(=O)NS(=O)(=O)N(C)C)cc21 (some centres unmarked) | 1.9 to 500 |  |  |  | 
